Source: article PMC12091851, “Replacing a Cereblon Ligand by a DDB1 and CUL4 Associated Factor 11 (DCAF11) Recruiter Converts a Selective Histone Deacetylase 6 PROTAC into a Pan‐Degrader” (Chemmedchem, 2025)

Molecular target: T1, HDAC6 (Homo sapiens, UniProt Q9UBN7)
T1 sequence (Q9UBN7 1-1215): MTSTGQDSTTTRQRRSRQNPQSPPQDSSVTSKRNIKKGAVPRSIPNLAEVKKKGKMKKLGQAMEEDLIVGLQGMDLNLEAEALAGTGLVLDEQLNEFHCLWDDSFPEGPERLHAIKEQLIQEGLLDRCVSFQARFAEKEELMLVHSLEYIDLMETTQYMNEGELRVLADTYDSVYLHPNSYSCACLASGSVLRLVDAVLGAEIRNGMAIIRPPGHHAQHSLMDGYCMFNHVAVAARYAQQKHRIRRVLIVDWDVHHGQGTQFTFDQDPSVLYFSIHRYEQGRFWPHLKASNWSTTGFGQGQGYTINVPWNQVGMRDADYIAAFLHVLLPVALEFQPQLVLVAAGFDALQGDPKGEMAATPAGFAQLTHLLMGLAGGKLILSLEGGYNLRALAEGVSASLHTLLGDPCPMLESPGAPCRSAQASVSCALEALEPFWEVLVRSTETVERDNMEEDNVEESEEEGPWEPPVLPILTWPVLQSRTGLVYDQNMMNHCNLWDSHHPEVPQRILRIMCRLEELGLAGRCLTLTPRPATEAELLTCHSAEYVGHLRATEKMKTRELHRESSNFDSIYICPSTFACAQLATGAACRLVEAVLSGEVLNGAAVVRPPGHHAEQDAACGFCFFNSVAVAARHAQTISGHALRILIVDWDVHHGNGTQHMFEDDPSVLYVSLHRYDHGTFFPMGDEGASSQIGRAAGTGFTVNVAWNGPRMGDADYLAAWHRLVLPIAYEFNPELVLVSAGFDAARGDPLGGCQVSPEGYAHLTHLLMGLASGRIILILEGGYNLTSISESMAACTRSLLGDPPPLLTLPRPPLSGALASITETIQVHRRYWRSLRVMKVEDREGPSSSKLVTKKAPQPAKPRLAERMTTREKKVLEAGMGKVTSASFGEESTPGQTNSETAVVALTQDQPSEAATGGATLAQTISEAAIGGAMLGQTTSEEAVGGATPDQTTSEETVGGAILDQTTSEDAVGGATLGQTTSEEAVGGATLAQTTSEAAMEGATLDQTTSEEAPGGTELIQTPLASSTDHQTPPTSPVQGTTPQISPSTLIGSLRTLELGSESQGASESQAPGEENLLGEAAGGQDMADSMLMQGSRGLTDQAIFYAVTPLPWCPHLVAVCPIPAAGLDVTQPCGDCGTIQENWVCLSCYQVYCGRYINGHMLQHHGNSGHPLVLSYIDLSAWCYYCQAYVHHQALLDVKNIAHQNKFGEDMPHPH
Assay: Immunoblot HDAC6 degradation in MM.1S cell lysates
Format: cell-based
Set-up: endogenous in cells; host or cells: MM.1S
Conditions: MM1.S, MM.1S cells, 24 h, read-out: maximal degradation (Dmax) HDAC6
Method: Figure 6 Examination of HDAC isoform degradation. MM.1S cells were treated with the indicated compounds (10 μM) or vehicle (DMSO) for 24 h. HDAC1, 2, 4, and 6 levels were analyzed by immunoblotting. (A) Representative images from a total of n=3 biological replicates.
2.5. Aqueous Stability Assay
For stability testing in aqueous solution, a 10-fold concentrated DMSO solution of the respective compounds was diluted in DPBS to generate a 10 µM concentration (final DMSO content of 10%).
Samples of the aqueous solutions were taken after 0, 24, 48, and 72 h at room temperature and the amounts of the parental compound and potential fragments were monitored by HPLC gradient A (see 3.1 General Information). The peak area of the 0 h sample was used for normalization. All compounds were tested in duplicates and GraphPad Prim was used for evaluation and data visualization.
The cell lysis was performed as descripted in 3.2. Simple Western Immunoassay. Samples were denatured by Laemmli 2× Concentrate (Catalog# S3401-10VL, Sigma-Aldrich) for 5 min at 95 °C, and […]
Bio-Rad, Hercules, CA, USA). […]
6.1 (Bio-Rad) for quantification. […]
In vitro inhibitory activities against HDAC1, 2 , and 6 were measured using a previously published protocol.[3] In vitro inhibitory activities against HDAC4 were measured using a previously published protocol with slight modifications. […]

Dmax at 10 µM	SMILES
71 to 76%	O=C(CCCCCCNC(=O)c1ccc(NC(=O)CCCCCCCCCCCN(C(=O)CCl)C(C(=O)NCc2ccccc2)c2ccc(Cl)c(Cl)c2)cc1)NO (centres unmarked) [Compound 1j]
26%	O=C(CCCCCCNC(=O)c1ccc(N(C(=O)CCl)C(C(=O)NCc2ccccc2)c2ccc(Cl)c(Cl)c2)cc1)NO (centres unmarked) [Compound 2]
